Measured values from patent US20260297109A1, “COMPOUNDS AS SUMO ACTIVATING ENZYME INHIBITORS” (WIGEN BIOMEDICINE TECHNOLOGY (SHANGHAI) CO., LTD., priority 2022, published 2026).

Target: T1, SAE (Homo sapiens, UniProt Q9UBT2)
T1 construct: endogenous in cells; host or cells: HCT116
T1 sequence (Q9UBT2 1-640): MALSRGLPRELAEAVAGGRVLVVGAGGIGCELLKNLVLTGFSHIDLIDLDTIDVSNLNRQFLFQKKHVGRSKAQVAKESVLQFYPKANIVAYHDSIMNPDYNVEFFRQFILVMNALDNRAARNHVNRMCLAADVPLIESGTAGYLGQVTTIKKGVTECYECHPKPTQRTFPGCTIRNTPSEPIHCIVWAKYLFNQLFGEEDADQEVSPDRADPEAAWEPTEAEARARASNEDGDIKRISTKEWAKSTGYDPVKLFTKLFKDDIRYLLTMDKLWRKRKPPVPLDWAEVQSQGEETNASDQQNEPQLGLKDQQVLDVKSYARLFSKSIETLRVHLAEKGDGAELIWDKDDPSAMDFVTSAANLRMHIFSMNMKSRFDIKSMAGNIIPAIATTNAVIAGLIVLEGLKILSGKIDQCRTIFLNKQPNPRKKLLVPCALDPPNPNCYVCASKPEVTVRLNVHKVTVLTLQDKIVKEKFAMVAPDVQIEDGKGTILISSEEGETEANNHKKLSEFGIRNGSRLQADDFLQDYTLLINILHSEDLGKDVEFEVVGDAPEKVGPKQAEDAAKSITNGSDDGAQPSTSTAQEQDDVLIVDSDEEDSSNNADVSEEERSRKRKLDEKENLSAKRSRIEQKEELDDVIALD
T1 sequence (Q9UBE0 1-346): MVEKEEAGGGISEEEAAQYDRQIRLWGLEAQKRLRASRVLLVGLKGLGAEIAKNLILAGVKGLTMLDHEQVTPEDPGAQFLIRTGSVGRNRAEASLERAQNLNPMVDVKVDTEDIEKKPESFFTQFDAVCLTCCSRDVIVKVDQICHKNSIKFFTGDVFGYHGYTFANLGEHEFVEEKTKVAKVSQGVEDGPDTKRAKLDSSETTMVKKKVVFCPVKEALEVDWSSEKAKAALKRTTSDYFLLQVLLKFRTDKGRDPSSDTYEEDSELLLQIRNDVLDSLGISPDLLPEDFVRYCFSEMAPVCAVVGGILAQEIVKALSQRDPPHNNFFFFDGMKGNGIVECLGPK
Assay: SUMO IF: in vitro inhibitory activity assay against SAE in HCT116 cells (SUMO-2/3 immunofluorescence)
Assay type: cell-based
Settings: class symbols, 6 h at 37° C.
Outline: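 SUMO-2/3 immunofluorescence (18H8 primary 1:400, FITC secondary 1:300) was read after 6 h compound exposure of HCT116 cells at 37 °C. Inhibition rate and IC50 derive from signal relative to DMSO-treated wells.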

Row | SMILES | IC50
1 | NS(=O)(=O)OC[C@H]1[C@H](F)[C@@H](Nc2ncncc2C(=O)c2cc3c(s2)CSC[C@]32NCCc3ccccc32)C[C@@H]1O [Compound 296] | 50 to 200 nM
2 | NS(=O)(=O)OC[C@H]1[C@H](F)[C@@H](Nc2ncncc2C(=O)c2cc3c(s2)CSCC32NCCc3ccc(F)cc32)C[C@@H]1O (stereo partly drawn) [Compound 297] | ≤ 50 nM
3 | NS(=O)(=O)OC[C@H]1[C@H](F)[C@@H](Nc2ncncc2C(=O)c2cc3c(s2)CSC[C@@]32NCCc3ccc(F)cc32)C[C@@H]1O [Compound 298] | > 200 nM
4 | NS(=O)(=O)OC[C@H]1[C@H](F)[C@@H](Nc2ncncc2C(=O)c2cc3c(s2)CSC[C@]32NCCc3ccc(F)cc32)C[C@@H]1O [Compound 299] | ≤ 50 nM
5 | NS(=O)(=O)OC[C@H]1[C@H](F)[C@@H](Nc2ncncc2C(=O)c2cc3c(s2)CSCC32NCCc3ccc(Cl)cc32)C[C@@H]1O (stereo partly drawn) [Compound 300] | ≤ 50 nM
6 | NS(=O)(=O)OC[C@H]1[C@H](F)[C@@H](Nc2ncncc2C(=O)c2cc3c(s2)C(F)=CC32NCCc3ccc(Cl)cc32)C[C@@H]1O (stereo partly drawn) [Compound 321] | ≤ 50 nM
7 | NS(=O)(=O)OC[C@H]1[C@H](F)[C@@H](Nc2ncncc2C(=O)c2cc3c(s2)C(F)=C[C@@]32NCCc3ccc(Cl)cc32)C[C@@H]1O [Compound 322] | > 200 nM
8 | NS(=O)(=O)OC[C@H]1[C@H](F)[C@@H](Nc2ncncc2C(=O)c2cc3c(s2)C(F)=C[C@]32NCCc3ccc(Cl)cc32)C[C@@H]1O [Compound 323] | ≤ 50 nM
9 | CC1=CC2(NCCc3ccc(Cl)cc32)c2cc(C(=O)c3cncnc3N[C@H]3C[C@H](O)[C@@H](COS(N)(=O)=O)[C@@H]3F)sc21 (stereo partly drawn) [Compound 324] | 50 to 200 nM
10 | CC1=C[C@@]2(NCCc3ccc(Cl)cc32)c2cc(C(=O)c3cncnc3N[C@H]3C[C@H](O)[C@@H](COS(N)(=O)=O)[C@@H]3F)sc21 [Compound 325] | > 200 nM
11 | CC1=C[C@]2(NCCc3ccc(Cl)cc32)c2cc(C(=O)c3cncnc3N[C@H]3C[C@H](O)[C@@H](COS(N)(=O)=O)[C@@H]3F)sc21 [Compound 326] | ≤ 50 nM
12 | NS(=O)(=O)OC[C@H]1[C@H](F)[C@@H](Nc2ncncc2C(=O)c2cc3c(s2)C(F)(F)CC32NCCc3ccc(Cl)cc32)C[C@@H]1O (stereo partly drawn) [Compound 327] | 50 to 200 nM
13 | NS(=O)(=O)OC[C@H]1[C@H](F)[C@@H](Nc2ncncc2C(=O)c2cc3c(s2)C(F)(F)C[C@@]32NCCc3ccc(Cl)cc32)C[C@@H]1O [Compound 328] | > 200 nM
14 | NS(=O)(=O)OC[C@H]1[C@H](F)[C@@H](Nc2ncncc2C(=O)c2cc3c(s2)C(F)(F)C[C@]32NCCc3ccc(Cl)cc32)C[C@@H]1O [Compound 329] | 50 to 200 nM
15 | NS(=O)(=O)OC[C@H]1[C@H](F)[C@@H](Nc2ncncc2C(=O)c2cc3c(s2)C=C[C@@]32NCCc3ccc(F)cc32)C[C@@H]1O [Compound 345] | > 200 nM
16 | NS(=O)(=O)OC[C@H]1[C@H](F)[C@@H](Nc2ncncc2C(=O)c2cc3c(s2)C=C[C@]32NCCc3ccc(F)cc32)C[C@@H]1O [Compound 346] | ≤ 50 nM
17 | NS(=O)(=O)OC[C@H]1[C@H](F)[C@@H](Nc2ncncc2C(=O)c2cc3c(s2)COCC32NCCc3ccc(Cl)c(Cl)c32)C[C@@H]1O (stereo partly drawn) [Compound 558] | 50 to 200 nM
18 | NS(=O)(=O)OC[C@H]1[C@H](F)[C@@H](Nc2ncncc2C(=O)c2cc3c(s2)COC[C@@]32NCCc3ccc(Cl)c(Cl)c32)C[C@@H]1O [Compound 559] | > 200 nM

Row | SMILES | IC50
19 | NS(=O)(=O)OC[C@H]1[C@H](F)[C@@H](Nc2ncncc2C(=O)c2cc3c(s2)COC[C@]32NCCc3ccc(Cl)c(Cl)c32)C[C@@H]1O [Compound 560] | 50 to 200 nM
20 | NS(=O)(=O)OC[C@H]1[C@H](F)[C@@H](Nc2ncncc2C(=O)c2cc3c(s2)COCC32NCCc3cc(Cl)c(Cl)cc32)C[C@@H]1O (stereo partly drawn) [Compound 561] | 50 to 200 nM
21 | NS(=O)(=O)OC[C@H]1[C@H](F)[C@@H](Nc2ncncc2C(=O)c2cc3c(s2)COC[C@@]32NCCc3cc(Cl)c(Cl)cc32)C[C@@H]1O [Compound 562] | > 200 nM
22 | NS(=O)(=O)OC[C@H]1[C@H](F)[C@@H](Nc2ncncc2C(=O)c2cc3c(s2)COC[C@]32NCCc3cc(Cl)c(Cl)cc32)C[C@@H]1O [Compound 563] | 50 to 200 nM
23 | NS(=O)(=O)OC[C@H]1[C@H](F)[C@@H](Nc2ncncc2C(=O)c2cc3c(s2)COCC32NCCc3c(Cl)cc(Cl)cc32)C[C@@H]1O (stereo partly drawn) [Compound 564] | 50 to 200 nM
24 | NS(=O)(=O)OC[C@H]1[C@H](F)[C@@H](Nc2ncncc2C(=O)c2cc3c(s2)COC[C@@]32NCCc3c(Cl)cc(Cl)cc32)C[C@@H]1O [Compound 565] | > 200 nM
25 | NS(=O)(=O)OC[C@H]1[C@H](F)[C@@H](Nc2ncncc2C(=O)c2cc3c(s2)COC[C@]32NCCc3c(Cl)cc(Cl)cc32)C[C@@H]1O [Compound 566] | 50 to 200 nM
26 | NS(=O)(=O)OC[C@H]1[C@H](F)[C@@H](Nc2ncncc2C(=O)c2cc3c(s2)COCC32NCCc3ccc(Cl)c(F)c32)C[C@@H]1O (stereo partly drawn) [Compound 567] | 50 to 200 nM
27 | NS(=O)(=O)OC[C@H]1[C@H](F)[C@@H](Nc2ncncc2C(=O)c2cc3c(s2)COC[C@@]32NCCc3ccc(Cl)c(F)c32)C[C@@H]1O [Compound 568] | > 200 nM
28 | NS(=O)(=O)OC[C@H]1[C@H](F)[C@@H](Nc2ncncc2C(=O)c2cc3c(s2)COC[C@]32NCCc3ccc(Cl)c(F)c32)C[C@@H]1O [Compound 569] | 50 to 200 nM
29 | NS(=O)(=O)OC[C@H]1[C@H](F)[C@@H](Nc2ncncc2C(=O)c2cc3c(s2)COCC32NCCc3cc(F)c(Cl)cc32)C[C@@H]1O (stereo partly drawn) [Compound 570] | 50 to 200 nM
30 | NS(=O)(=O)OC[C@H]1[C@H](F)[C@@H](Nc2ncncc2C(=O)c2cc3c(s2)COC[C@@]32NCCc3cc(F)c(Cl)cc32)C[C@@H]1O [Compound 571] | > 200 nM
31 | NS(=O)(=O)OC[C@H]1[C@H](F)[C@@H](Nc2ncncc2C(=O)c2cc3c(s2)COC[C@]32NCCc3cc(F)c(Cl)cc32)C[C@@H]1O [Compound 572] | 50 to 200 nM
32 | NS(=O)(=O)OC[C@H]1[C@H](F)[C@@H](Nc2ncncc2C(=O)c2cc3c(s2)COCC32NCCc3c(F)cc(Cl)cc32)C[C@@H]1O (stereo partly drawn) [Compound 573] | 50 to 200 nM
33 | NS(=O)(=O)OC[C@H]1[C@H](F)[C@@H](Nc2ncncc2C(=O)c2cc3c(s2)COC[C@@]32NCCc3c(F)cc(Cl)cc32)C[C@@H]1O [Compound 574] | > 200 nM
34 | NS(=O)(=O)OC[C@H]1[C@H](F)[C@@H](Nc2ncncc2C(=O)c2cc3c(s2)COC[C@]32NCCc3c(F)cc(Cl)cc32)C[C@@H]1O [Compound 575] | 50 to 200 nM
35 | CN1Cc2sc(C(=O)c3cncnc3N[C@H]3C[C@H](O)[C@@H](COS(N)(=O)=O)[C@@H]3F)cc2C2(C1)NCCc1ccc(Cl)cc12 (stereo partly drawn) [Compound 576] | ≤ 50 nM

Same assay, conditions: numeric values, 6 h at 37° C.

Row | SMILES | IC50
36 | NS(=O)(=O)OC[C@H]1[C@H](F)[C@@H](Nc2ncncc2C(=O)c2cc3c(s2)CSC[C@@]32NCCc3ccc(Cl)cc32)C[C@@H]1O [Compound 301] | > 1000 nM
37 | NS(=O)(=O)OC[C@H]1[C@H](F)[C@@H](Nc2ncncc2C(=O)c2cc3c(s2)CSC[C@]32NCCc3ccc(Cl)cc32)C[C@@H]1O [Compound 302] | 21.5 nM
38 | NS(=O)(=O)OC[C@H]1[C@H](F)[C@@H](Nc2ncncc2C(=O)c2cc3c(s2)C=C[C@@]32NCCc3ccc(Cl)cc32)C[C@@H]1O [Compound 343] | > 1000 nM
39 | CN1Cc2sc(C(=O)c3cncnc3N[C@H]3C[C@H](O)[C@@H](COS(N)(=O)=O)[C@@H]3F)cc2[C@@]2(C1)NCCc1ccc(Cl)cc12 [Compound 577] | > 1000 nM
